“And” between values parts separate entries of the source, which are not always exact repeats. Equal values may be shown once. Toxic doses and inconclusive results are not listed.
Test system: BDF1 mice, P388 leukemia ip, median survival T/C
Experiment: NCI In Vivo Anticancer Drug Screen. Data for tumor model P388 Leukemia (intraperitoneal) in B6D2F1 (BDF1) mice
Conditions: endpoint: median survival time, higher = longer survival
Summary of the method: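 Compound-treated tumour-bearing mice were compared with vehicle-treated controls. Survival was recorded, and the value is the treated-group measurement divided by the control-group measurement (T/C).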

[1] = dose: 100.0 mg/kg/injection, schedule: Q01DX009 (ip), vehicle: saline with Tween-80
[2] = dose: 100.0 mg/kg/injection, schedule: Q04DX003 (ip), vehicle: saline with Tween-80
[3] = dose: 200.0 mg/kg/injection, schedule: Q01DX009 (ip), vehicle: saline with Tween-80
[4] = dose: 200.0 mg/kg/injection, schedule: Q04DX003 (ip), vehicle: saline with Tween-80
[5] = dose: 400.0 mg/kg/injection, schedule: Q04DX003 (ip), vehicle: saline with Tween-80
[6] = dose: 100.0 mg/kg/injection, schedule: Q01DX009 (ip), vehicle: saline
[7] = dose: 100.0 mg/kg/injection, schedule: Q04DX003 (ip), vehicle: saline
[8] = dose: 200.0 mg/kg/injection, schedule: Q01DX009 (ip), vehicle: saline
[9] = dose: 200.0 mg/kg/injection, schedule: Q04DX003 (ip), vehicle: saline
[10] = dose: 50.0 mg/kg/injection, schedule: Q01DX009 (ip), vehicle: Klucel (hydroxypropylcellulose) (HPC)
[11] = dose: 100.0 mg/kg/injection, schedule: Q01DX009 (ip), vehicle: Klucel (hydroxypropylcellulose) (HPC)
[12] = dose: 200.0 mg/kg/injection, schedule: Q01DX009 (ip), vehicle: Klucel (hydroxypropylcellulose) (HPC)
[13] = dose: 25.0 mg/kg/injection, schedule: Q04DX003 (ip), vehicle: saline with Tween-80
[14] = dose: 50.0 mg/kg/injection, schedule: Q04DX003 (ip), vehicle: saline with Tween-80
[15] = dose: 400.0 mg/kg/injection, schedule: Q01DX009 (ip), vehicle: saline with Tween-80
[16] = dose: 12.5 mg/kg/injection, schedule: Q01DX009 (ip), vehicle: saline
[17] = dose: 100.0 mg/kg/injection, schedule: Q04DX003 (ip), vehicle: Klucel (hydroxypropylcellulose) (HPC)
[18] = dose: 200.0 mg/kg/injection, schedule: Q04DX003 (ip), vehicle: Klucel (hydroxypropylcellulose) (HPC)
[19] = dose: 400.0 mg/kg/injection, schedule: Q04DX003 (ip), vehicle: Klucel (hydroxypropylcellulose) (HPC)

C/C=C/C=N/NC(=S)NC
T/C (dose: 6.75 mg/kg/injection, schedule: Q01DX009 (ip), vehicle: saline with Tween-80): 109 % of control
T/C (dose: 13.5 mg/kg/injection, schedule: Q01DX009 (ip), vehicle: saline with Tween-80): 91 % of control
T/C (dose: 27.0 mg/kg/injection, schedule: Q01DX009 (ip), vehicle: saline with Tween-80): 86 % of control

CN1CCC(C(O)c2ccccc2)CC1 (configuration not stated)
T/C (dose: 100.0 mg/kg/injection, schedule: Q01DX001 (ip), vehicle: Klucel (hydroxypropylcellulose) (HPC)): 105 % of control
T/C (dose: 200.0 mg/kg/injection, schedule: Q01DX001 (ip), vehicle: Klucel (hydroxypropylcellulose) (HPC)): 105 % of control

O=C(O)c1ccc(-c2ccc(C(=O)O)cc2I)c(I)c1
T/C (dose: 50.0 mg/kg/injection, schedule: Q01DX009 (ip), vehicle: saline with Tween-80): 100 % of control
T/C [1]: 96 % of control
T/C [2]: 100 % of control
T/C [3]: 96 % of control
T/C [4]: 100 % of control
T/C [5]: 95 % of control

CCN(CC)CCCC(C)NC(=O)c1ccc2c(c1)C(=O)c1ccccc1C2=O (configuration not stated)
T/C (dose: 50.0 mg/kg/injection, schedule: Q01DX005 (ip), vehicle: saline): 98 % of control
T/C (dose: 100.0 mg/kg/injection, schedule: Q01DX005 (ip), vehicle: saline): 89 % of control

O=S(=O)(O)c1ccc(/C2=c3\cc/c([n-]3)=C(\c3ccc(S(=O)(=O)O)cc3)c3ccc([n-]3)/C(c3ccc(S(=O)(=O)O)cc3)=c3/cc/c([n-]3)=C(\c3ccc(S(=O)(=O)O)cc3)c3ccc2[n-]3)cc1.[Zn]
T/C (dose: 62.5 mg/kg/injection, schedule: Q01DX009 (ip), vehicle: saline with Tween-80): 106 % of control

C#CC1(OCC2CO2)CCCCC1 (configuration not stated)
T/C [6]: 92 % of control
T/C [7]: 110 % of control
T/C [8]: 103 % of control
T/C [9]: 110 % of control
T/C (dose: 400.0 mg/kg/injection, schedule: Q01DX009 (ip), vehicle: saline): 92 % of control

COc1cc(N)c2ncsc2c1[N+](=O)[O-]
T/C [10]: 89 % of control
T/C [11]: 105 % of control
T/C [12]: 106 % of control

CC(C)=CC(=O)CC(O)(C(F)(F)F)C(F)(F)Cl (configuration not stated)
T/C [13]: 100 % of control
T/C [14]: 95 % of control
T/C [2]: 109 % of control

CCCCN(C(=O)C(F)(F)F)C(C)(C)C(SSSC(c1ccc(Cl)cc1)C(C)(C)N(CCCC)C(=O)C(F)(F)F)c1ccc(Cl)cc1 (configuration not stated)
T/C [1]: 100 % of control
T/C [2]: 100 % of control
T/C [3]: 100 % of control
T/C [4]: 100 % of control
T/C [15]: 100 % of control
T/C [5]: 118 % of control

CN1CCN(C2CCCCc3ccccc32)CC1 (configuration not stated)
T/C [13]: 104 % of control
T/C [14]: 113 % of control
T/C [2]: 109 % of control

CC12CCC(C(N)C1=O)C2(C)C (configuration not stated)
T/C (dose: 50.0 mg/kg/injection, schedule: Q01DX009 (ip), vehicle: saline): 107 % of control
T/C [6]: 114 % of control
T/C [7]: 101 % of control
T/C [8]: 86 % of control
T/C [9]: 104 % of control

CN(C)c1ccc(/C=C\C(=O)c2ccccc2)cc1
T/C [11]: 100 % of control
T/C [12]: 110 % of control
T/C (dose: 400.0 mg/kg/injection, schedule: Q01DX009 (ip), vehicle: Klucel (hydroxypropylcellulose) (HPC)): 120 % of control

COC1=CC(=O)c2c(O)cc(OC)c(O)c2C1=O
T/C (dose: 2.5 mg/kg/injection, schedule: Q01DX009 (ip), vehicle: saline with Tween-80): 104 % of control
T/C (dose: 5.0 mg/kg/injection, schedule: Q01DX009 (ip), vehicle: saline with Tween-80): 113 % of control

Cc1ccc(C2(C#N)CCCCC2)cc1
T/C (dose: 66.0 mg/kg/injection, schedule: Q01DX009 (ip), vehicle: saline with Tween-80): 116 % of control
T/C [1]: 120 % of control
T/C [2]: 100 % of control
T/C (dose: 150.0 mg/kg/injection, schedule: Q01DX009 (ip), vehicle: saline with Tween-80): 112 % of control
T/C [3]: 108 % of control
T/C [4]: 108 % of control
T/C [15]: 116 % of control
T/C [5]: 112 % of control

C=CCn1c(=S)[nH]c2ccccc2c1=O
T/C [1]: 100 % of control
T/C [3]: 95 % of control
T/C [15]: 100 % of control

Cc1c2c(cc3c1[nH]c1ccccc13)C(c1ccc(Cl)cc1)=NCC2
T/C [11]: 86 % of control

C/C=C/C1CC(OC)=CC(=O)O1 (configuration not stated)
T/C [2]: 106 % of control
T/C [4]: 92 % of control
T/C [5]: 97 % of control

COC(=O)c1cc([N+](=O)[O-])ccc1Cl
T/C [7]: 98 % of control
T/C [9]: 102 % of control
T/C (dose: 400.0 mg/kg/injection, schedule: Q04DX003 (ip), vehicle: saline): 100 % of control

CCCCN=C(N)c1ccc(NC(=O)c2ccc(C(=O)Nc3ccc(C(N)=NCCCC)cc3)cc2)cc1
T/C (dose: 15.0 mg/kg/injection, schedule: Q04DX003 (ip), vehicle: saline with Tween-80): 122 % of control
T/C (dose: 26.0 mg/kg/injection, schedule: Q04DX003 (ip), vehicle: saline with Tween-80): 154 % of control
T/C (dose: 30.0 mg/kg/injection, schedule: Q01DX009 (ip), vehicle: saline with Tween-80): 196 % of control
T/C (dose: 30.0 mg/kg/injection, schedule: Q04DX003 (ip), vehicle: saline with Tween-80): 158 % of control and 181 % of control
T/C (dose: 40.0 mg/kg/injection, schedule: Q04DX003 (ip), vehicle: saline with Tween-80): 166 % of control and 181 % of control
T/C (dose: 45.0 mg/kg/injection, schedule: Q04DX003 (ip), vehicle: saline with Tween-80): 179 % of control
T/C (dose: 60.0 mg/kg/injection, schedule: Q04DX003 (ip), vehicle: saline with Tween-80): 163 % of control and 183 % of control and 186 % of control
T/C (dose: 90.0 mg/kg/injection, schedule: Q04DX003 (ip), vehicle: saline with Tween-80): 204 % of control

CCCCNC(C)(C)CS
T/C (dose: 3.12 mg/kg/injection, schedule: Q04DX003 (ip), vehicle: saline): 106 % of control
T/C (dose: 6.25 mg/kg/injection, schedule: Q04DX003 (ip), vehicle: saline): 115 % of control
T/C [16]: 116 % of control
T/C (dose: 12.5 mg/kg/injection, schedule: Q04DX003 (ip), vehicle: saline): 108 % of control
T/C (dose: 25.0 mg/kg/injection, schedule: Q01DX009 (ip), vehicle: saline): 109 % of control
T/C (dose: 25.0 mg/kg/injection, schedule: Q04DX003 (ip), vehicle: saline): 97 % of control
T/C (dose: 50.0 mg/kg/injection, schedule: Q04DX003 (ip), vehicle: saline): 101 % of control
T/C [7]: 92 % of control

O=S(=O)(NC(=S)Nc1ccc(Cl)cc1)c1ccccc1
T/C [10]: 113 % of control
T/C [11]: 118 % of control
T/C (dose: 150.0 mg/kg/injection, schedule: Q04DX003 (ip), vehicle: Klucel (hydroxypropylcellulose) (HPC)): 113 % of control
T/C (dose: 225.0 mg/kg/injection, schedule: Q04DX003 (ip), vehicle: Klucel (hydroxypropylcellulose) (HPC)): 117 % of control
T/C (dose: 335.0 mg/kg/injection, schedule: Q04DX003 (ip), vehicle: Klucel (hydroxypropylcellulose) (HPC)): 113 % of control

CC(O)C(c1ccccc1)S(C)(=O)=O (configuration not stated)
T/C [17]: 95 % of control
T/C [18]: 104 % of control
T/C [19]: 91 % of control

O=C1NC2(CCCCC2)C(=O)N1CCN(CCCl)CCCl
T/C (dose: 0.39 mg/kg/injection, schedule: Q01DX009 (ip), vehicle: saline): 196 % of control
T/C (dose: 0.78 mg/kg/injection, schedule: Q01DX009 (ip), vehicle: saline): 189 % of control
T/C (dose: 1.56 mg/kg/injection, schedule: Q01DX009 (ip), vehicle: saline): 222 % of control
T/C (dose: 3.12 mg/kg/injection, schedule: Q01DX009 (ip), vehicle: saline): 291 % of control
T/C (dose: 6.25 mg/kg/injection, schedule: Q01DX009 (ip), vehicle: saline): 291 % of control
T/C [16]: 120 % of control

S=P(N1CCOCC1)(N1CC1)N1CC1
T/C (dose: 2.5 mg/kg/injection, schedule: Q01DX010 (ip), vehicle: saline): 109 % of control
T/C (dose: 20.0 mg/kg/injection, schedule: Q01DX010 (ip), vehicle: saline): 155 % of control

CC(=O)C1CCCC23CC(CC12)C(C)(C)C3OC=O (configuration not stated)
T/C [17]: 90 % of control
T/C [18]: 100 % of control
T/C [19]: 109 % of control
